# Values of other authors, collected in patent US20190022221A1 (priority 2015, published 2019).
# Assays:
# [1] = tested on: Acinetobacter baumannii; settings: 1.1-millimeter-thick soft agar layer, light 100 milliWatts per square centimeter
# [2] = in vivo
# [3] = tested on: Venezuelan equine encephalitis virus (VEEV)
# [4] = tested on: Zaire Ebola virus (ZEBOV)
compound,measurement,setting,value
[Mn(PaPy3)(NO)](ClO4),clearance of bacteria from treated areas of the plates,[1],effectively cleared the bacteria
"CC(=O)[O-].CC(=O)[O-].CCc1c(CC)c2cc3nc(cnc4cc(OCCOCCOCCOC)c(OCCOCCOCCOC)cc4ncc4nc(cc1[n-]2)C(CCCO)=C4C)C(C)=C3CCCO.O.[Lu+3] [Lutetium texaphryin, Motexafin lutetium]",duration of skin photosensitivity,[2],24 to 48 h
"[N-]=[N+]=Nc1cccc2c(I)cccc12 [INA, 1,5-iodonaphthyl azide]",inactivation of virulent strain of VEEV,[3],efficiently inactivate
same,infectivity of ZEBOV after INA treatment,[4],completely noninfectious
"Oc1cccc(-c2c3nc(c(-c4cccc(O)c4)c4ccc([nH]4)c(-c4cccc(O)c4)c4nc(c(-c5cccc(O)c5)c5ccc2[nH]5)CC4)C=C3)c1 [Foscan, Tetra (m-hydroxyphenyl) chlorin]",duration of skin photosensitivity,[2],approximately 2 weeks
